Entries after “also recorded” stand apart in the source; their conditions may differ.
Columns and labels:
Caspase 3 = Caspase 3 protein level in dorsal root ganglion of SNL rats via Western blotting (Examples 10, 17); format: in vivo, Sprague Dawley rats; conditions: Left DRG of SNL rats, 160 mg/Kg PO for 5 days, vs. Vehicle treated SNL rats, unpaired t-test
Text: Western blotting is a widely used analytical technique used to detect specific proteins in a sample of tissue homogenate or extract. Before one can perform Western blotting one must develop a technique for extracting the protein to be measured from the target tissue. Below is an example of the measurement of Caspase 3 from rat dorsal root ganglion (DRG) using Western blotting.
Protein Extraction Preparation: Frozen DRG tissue samples were homogenized in a radioimmunoprecipitation assay (RIPA) buffer (75 μl per sample) using a handheld pestle homogenizer, 30 seconds on ice. Samples were cleared by centrifugation at 14,000 rpm for 15 minutes at 4° C. Supernatants were collected and protein amount was determined using Bio-Rad DC protein kit.
Western Blotting: Protein samples were denatured in Laemmli buffer/2-mercaptoethanol for 5 minutes at 95 C. Denatured protein samples were separated by SDS-PAGE. After electrophoresis, proteins were transferred from gel to LFP-PVDF membranes by electroblotting. […]
Antibody binding was detected using the ECL Plus Western Chemifluorescence Detection Kit (Cat #32132, ThermoFisher Scientific). […] The scanned images from the Typhoon were analyzed with ImageQuantTL software version 7.0 (GE Healthcare Bioscience, Piscataway, NJ). Band intensities were determined using the Rolling Ball method. […]

[1] = tested on: TDP-43 overexpressed flies; assay: TDP-43 pupal lethality screen (Example 23); format: in vivo, Drosophila; conditions: larvae raised on 1 microMolar; DMSO control 51%
Description: Procedure: UAS TDP-43 male Drosophila flies were crossed with D42-Gal4 female virgins on fly food containing either DMSO or 1% Compound 118 in dimethyl sulfoxide (DMSO). For DMSO controls, the same volume of DMSO as the corresponding Compound 118 concentration was added. Bromophenol blue was added to a final concentration of around 0.02% to ensure homogeneity. Crosses were made on drug food with three female virgins and two males in each vial and were maintained at 25° C. unless noted. The parents were discarded after 5-7 days and then the vials were screened for adult progeny with straight wings from Day 14 to Day 25. All adults were screened for TDP-43 expression by visualizing the YFP tag. Total number of pupae was counted on Day 25. Percent survival was calculated using the formula (total number of straight-winged adults/total number of pupae)×100. All experiments were performed in triplicate. Read-outs include larval turning assay and pupil lethality screen.
Compound 118 (represented as AQU-118) caused a decrease in lethality from 51% (bottom left) to 39% (bottom right). In this screen the number of adult TDP-43 overexpressed flies that emerge from their pupae stage is compared to w1118 controls. Larvae were raised on either DMSO or Compound 118 at 1 microMolar. N=number of pupae counted. Alive=empty pupal cases, adults have emerged. […]

[2] = Solubility testing (Example 27); format: physicochemical

With `[2H]C([2H])([2H])c1ccc(C#Cc2ccc(S(=O)(=O)N[C@H](Cc3c[nH]c4ccccc34)C(=O)O)s2)cc1` [Compound 118, (R)-3-(1H-Indol-3-yl)-2-[5-(4-trideuteromethyl-phenylethynyl)-thiophene-2-sulfonylamino]-propionic acid-(D3, 98%)] the “caspase 3 protein level in dorsal root ganglion (Western blotting)” value (Caspase 3) was “significant decrease of caspase 3 protein; also recorded: decrease in the caspase-3 protein levels”, the “lethality (dead pupae)” value [1] was 39% and the “solubility in DMSO, acetone and methanol” value [2] was “soluble”. The solubility in water ([2]; as the free acid) was “poorly soluble”.

Source: patent US12589090B2, “Compounds and methods for the treatment of degenerative disorders” (Aquilus Pharmaceuticals, Inc., priority 2019, dated 2026)
